Tests used:
Scarb1-/-DCs = experiment: BMDCs from Scarb1-/- versus wild-type mice; assay type: cell-based, mouse
Excerpt: VitE can enter enterocytes via the SCARB1 receptor, and SCARB1 facilitates the uptake of cholesteryl esters from high-density lipoproteins. […] To determine whether SCARB1 is required for VitE-induced DC activation, we generated BMDCs from Scarb1-/-versus wild-type mice. […] Taken together, VitE enters DCs via SCARB1 and binds SHP1 to inhibit pSHP1, leading to DC activation, which increases antitumor T-cell immunity (data not shown; see Yuan et al. 2022, FIG. 4I; see also U.S. Provisional Application No. 63/252,721, FIG. 4D).

EMT6 mammary tumors = experiment: Orthotopic EMT6 mammary tumor model; assay type: in vivo, mouse
H-2Kb-SIINFEKL = experiment: Antigen cross-presentation: H-2Kb-SIINFEKL on OVA-loaded DCs by flow cytometry; assay type: cell-based, mouse
Excerpt: FIG. 4A: Flow cytometric analysis and quantification of H-2Kb-SIINFEKL in OVA-loaded sgCtrl or sgPtpn6-DC2.4 cells without or with TCM treatment (n=3). FIG. 4B: FCM analysis and quantification of H-2K^b-SIINFEKL in the vehicle or VitE-treated BMDCs with or without TCM treatment (n=5). Error bars, s.e.m. ns, no significant. *P<0.05, **P<0.01. ***P<0.001. ****P<0.0001.
The most critical function of DCs is the cross-presentation of tumor antigens to T-cells (Guermonprez et al., 2002). We assessed the membrane MHC-I complexes that were loaded with intracellularly processed OVA-derived peptide (H-2Kb-SIINFEKL) on OVA-loaded DCs with VitE-treatment. […] Therefore, VitE administration enhances the activation and antigen cross-presentation function of DCs to provoke antigen-specific antitumor T-cell immunity. We quantified H-2Kb-SIINFEKL in the vehicle-or VitE-treated sgCtrl-DC2.4 or sgPtpn6-DC2.4 (n=3). […] Thus. SHP1 inhibition in DCs by VitE treatment or Ptpn6 knockout enhances antigen cross-presentation that boosts CD8+ T-cell antitumor immunity.

CD8+ OT-1 T cells = experiment: DC-EV in vitro assays (H-2Kb-SIINFEKL on EVs, binding to CD8+ T cells, OT-1 proliferation, IFN-γ ELISA); assay type: cell-based, mouse; conditions: EVs of OVA-loaded BMDCs treated with VitE vs vehicle
Procedure: To generate DC-EVs, BMDCs or DC2.4 were cultured at a density of 2×10^6 cells/ml and treated with LPS (100 ng/ml) for 18 h and then treated with OVA protein (250 μg/ml) for 24 hours in DCs culture media supplemented with 10% exosome depleted FBS, which is prepared by the first ultracentrifugation at 100,000 g for 16 h, and then filtering using a 100 nm filter. Supernatants were collected from 48-72 h DCs cultures and EVs were purified by a standard differential ultracentrifugation. […] The purified exosomes were then analyzed and used for experimental procedures. […]
For FACS analysis, exosomes were conjugated with 4 μm aldehyde/sulfate latex beads (Cat. A37304, Thermo Fisher) by overnight incubation. The EVs-bound beads were incubated with glycine to block remaining binding sites and surface expression of SIINFEKL-loaded MHC-I complexes on DC-EVs was determined by staining with anti-mouse H-2K^b bound to SIINFEKL antibody. […]
To verify the physical interactions between DC-EVs and CD8^+ T cells, purified DC-EVs were stained with DiO (Cat. V22889, Thermo Fisher) in 100 μl PBS, and then washed with 10 ml PBS and pelleted by ultracentrifugation. For cell treatment, DC-EVs (10 μg/ml) (unless specified otherwise) were used on the basis of protein concentration determined by a BCA Protein Assay Kit (Pierce). […] After 72 h, the T-cell proliferation was analyzed by FACS. […]

**Q.** How did the “pY564-SHP1 in Scarb1-/- DCs” value (Scarb1-/-DCs; VitE treatment, unlike wild-type DCs) turn out when `Cc1c(C)c2c(c(C)c1O)CC[C@@](C)(CCC[C@H](C)CCC[C@H](C)CCCC(C)C)O2` [VitE, D-α-Tocopherol] was run?
**A.** failed to inhibit pY564-SHP1

**Q.** And the “proliferation of cocultured T cells” value (Scarb1-/-DCs; VitE-treated Scarb1-/- DCs, in contrast to wild-type DCs)?
**A.** did not induce proliferation of cocultured T cells

**Q.** What about the “average tumor volume at day 15” value (EMT6 mammary tumors; BALB/c mice, n=10 per group, vehicle-treated 350 mm^3) of the same compound?
**A.** 173 mm^3

**Q.** And the “pY564-SHP1 level in TADCs” value (EMT6 mammary tumors; CyTOF, day 15 post-implantation, VitE vs vehicle)?
**A.** reduced the pY564-SHP1 level in TADCs

**Q.** What about the therapeutic response (EMT6 mammary tumors; VitE 50 mg/kg and ICT (anti-PD1) combo-treatment) of the same compound?
**A.** significantly improved therapeutic response

**Q.** What about the tumor growth (EMT6 mammary tumors; VitE alone vs vehicle-treated group) of the same compound?
**A.** reduced tumor growth

**Q.** And the “tumor infiltration of immune cells (CyTOF of CD45+ cells)” value (EMT6 mammary tumors; VitE treatment vs vehicle)?
**A.** increased the tumor infiltrations of CD11c+DCs and CD8+ T cells

**Q.** What about the “H-2Kb-SIINFEKL molecules on sgPtpn6-DC2.4 cells” value (H-2Kb-SIINFEKL; VitE treatment of SHP1-knockout cells) of the same compound?
**A.** did not further increase H-2Kb-SIINFEKL molecules

**Q.** What about the “H-2Kb-SIINFEKL molecules on DC2.4 cells” value (H-2Kb-SIINFEKL; vs vehicle-treated sgCtrl-DC2.4 cells) of the same compound?
**A.** significantly increased H-2Kb-SIINFEKL molecules on DC2.4 cells

**Q.** What about the “level of H-2Kb-SIINFEKL complexes on DC-EVs” value (CD8+ OT-1 T cells) of the same compound?
**A.** increased the level of H-2Kb-SIINFEKL complexes on DC-EVs

— US20240424019A1, “SHP1 MODIFIED DENDRITIC CELLS AND EXTRACELLULAR VESICLES DERIVED THEREFROM AND ASSOCIATED METHODS” (BOARD OF REGENTS, THE UNIVERSITY OF TEXAS SYSTEM, priority 2021, published 2024)
